Here are results for eleven compounds from US20250195477A1, “DEUTERATED IDAZOXAN AND METHODS OF USE THEREOF” (Terran Biosciences Inc., priority 2022, published 2025).

Structures are written as SMILES.

Data set [1] can be described thus: Metabolic stability in human liver microsomes. The class given is in vitro ADME. To be noted: significant if half-life increase >=15% or CLint ratio (deuterated compound/idazoxan) >1.15 or <0.85. The procedure:
Test compound (1 μM) was incubated with pooled liver microsomes.
Pooled liver microsomes were purchased from a reputable commercial supplier. Microsomes were stored at −80° C. prior to use.
A minus cofactor control incubation was included for each compound tested where 0.1 M phosphate buffer pH 7.4 was added instead of NADPH (minus NADPH). Two control compounds were included with each species. All incubations were performed singularly for each test compound.
The reactions were stopped by transferring incubate into acetonitrile at the appropriate time points, in a 1:3 ratio. The termination plates were centrifuged at 3,000 rpm for 20 min at 4° C. to precipitate the protein.
Following protein precipitation, the sample supernatants were combined in cassettes of up to 4 compounds, internal standard was added and samples analysed using generic LCMS/MS conditions.
From a plot of In peak area ratio (compound peak area/internal standard peak area) against time, the gradient of the line was determined. Subsequently, half-life and intrinsic clearance were calculated using the equations below:
where V=Incubation volume (μL)/Microsomal protein (mg)
Relevant control compounds were assessed, ensuring intrinsic clearance values fell within the specified limits (if available). Any failures were rejected and the assay repeated. The intrinsic clearance (CLint) of the test compound and standard error (SE CLint), t½ and n (number of time points used to calculate CLint) were returned.
(In general: Liver microsomes are a subcellular fraction often used to study metabolism.)

Data set [2] is described as follows: Metabolic stability in human liver microsomes. The data set is classed as in vitro ADME. To be noted: pH 7.4, pooled human liver microsomes 0.5 mg/mL, test compound 3 μM, NADPH, 0, 5, 15, 30, 45 min, LC-MS/MS; for microsomal CLint at 3 μM: read-out: CLint (μL/min/mg protein).
For data set [3] the following is noted: background statement; species and route not given; cited from earlier work.

`[2H]c1ccc2c(c1)OCC(C1=NCCN1)O2` (centres unmarked) [Compound 1, 2-(2,3-dihydrobenzo[b][1,4]dioxin-2-yl-6-d)-4,5-dihydro-1H-imidazole]: the “differences in in vitro clearance and half-life compared to idazoxan” value (shortened to “differences”) in data set [1] is on record as “significant differences”. In data set [2], the half-life (usually the time in which the quantity being followed falls by half) at 3 μM stood at 8.05 h and the microsomal CLint at 3 μM worked out at 2.87 µL/min/mg.

In the case of `[2H]c1ccc2c(c1)OC(C1=NCCN1)CO2` (centres unmarked) [Compound 2, 2-(2,3-dihydrobenzo[b][1,4]dioxin-2-yl-7-d)-4,5-dihydro-1H-imidazole], in data set [1], the “differences” value is given as “significant differences”. Moreover, in data set [2], the half-life at 3 μM is 21.8 h and the microsomal CLint at 3 μM was 1.06 µL/min/mg.

In the case of `[2H]c1cc2c(cc1[2H])OC(C1=NCCN1)CO2` (centres unmarked) [Compound 3, 2-(2,3-dihydrobenzo[b][1,4]dioxin-2-yl-6,7-d2)-4,5-dihydro-1H-imidazole], in data set [1], the “differences” value is given as “significant differences”. In data set [2], the half-life at 3 μM amounted to 10.4 h and the microsomal CLint at 3 μM amounted to 2.23 µL/min/mg.

As for `[2H]c1c([2H])c([2H])c2c(c1[2H])OCC(C1=NCCN1)O2` (centres unmarked) [Compound 4, 2-(2,3-dihydrobenzo[b][1,4]dioxin-2-yl-5,6,7,8-d4)-4,5-dihydro-1H-imidazole], in data set [1], the “differences” value is listed as “significant differences”. Further, in data set [2], the half-life at 3 μM was 8.93 h and the microsomal CLint at 3 μM was determined as 2.59 µL/min/mg.

As for `[2H]c1ccc2c(c1)OCC(C1=NC([2H])([2H])C([2H])([2H])N1)O2` (centres unmarked) [Compound 49, 2-(2,3-dihydrobenzo[b][1,4]dioxin-2-yl-6-d)-4,5-dihydro-1H-imidazole-4,4,5,5-d4], the “differences” value in data set [1] is “significant differences”. In data set [2], the half-life at 3 μM came to 15.5 h and the microsomal CLint at 3 μM is 1.49 µL/min/mg.

For the compound `[2H]c1ccc2c(c1)OC(C1=NC([2H])([2H])C([2H])([2H])N1)CO2` (centres unmarked) [Compound 50, 2-(2,3-dihydrobenzo[b][1,4]dioxin-2-yl-7-d)-4,5-dihydro-1H-imidazole-4,4,5,5-d4], the “differences” value in data set [1] is “significant differences”. Further, in data set [2], the half-life at 3 μM is 913 h and the microsomal CLint at 3 μM is 0.0253 µL/min/mg.

As for `[2H]c1cc2c(cc1[2H])OC(C1=NC([2H])([2H])C([2H])([2H])N1)CO2` (centres unmarked) [Compound 51, 2-(2,3-dihydrobenzo[b][1,4]dioxin-2-yl-6,7-d2)-4,5-dihydro-1H-imidazole-4,4,5,5-d4], the “differences” value in data set [1] was “significant differences”. Also, in data set [2], the half-life at 3 μM turned out to be 13.8 h and the microsomal CLint at 3 μM was 1.68 µL/min/mg.

Take `[2H]c1c([2H])c([2H])c2c(c1[2H])OCC(C1=NC([2H])([2H])C([2H])([2H])N1)O2` (centres unmarked) [Compound 52, 2-(2,3-dihydrobenzo[b][1,4]dioxin-2-yl-5,6,7,8-d4)-4,5-dihydro-1H-imidazole-4,4,5,5-d4]: the “differences” value in data set [1] was “significant differences”. Further, in data set [2], the half-life at 3 μM was 7.75 h and the microsomal CLint at 3 μM worked out at 2.98 µL/min/mg.

Take `[2H]C1([2H])N=C(C2COc3ccccc3O2)NC1([2H])[2H]` (centres unmarked) [Compound 64, 2-(2,3-dihydrobenzo[b][1,4]dioxin-2-yl)-4,5-dihydro-1H-imidazole-4,4,5,5-d4]: the “differences” value in data set [1] is given as “significant differences”. In data set [2], the half-life at 3 μM turned out to be 7.95 h and the microsomal CLint at 3 μM came to 2.91 µL/min/mg.

On to `COc1ccc2c(c1)[C@]13CCCC[C@@H]1[C@H](C2)N(C)CC3` [Dextromethorphan, reference compound], for which, in data set [2], the half-life at 3 μM was determined as 0.48 h and the microsomal CLint at 3 μM stood at 48.1 µL/min/mg.

As for `c1ccc2c(c1)OCC(C1=NCCN1)O2` (centres unmarked) [Idazoxan], in data set [2], the half-life at 3 μM came out at 4.28 h and the microsomal CLint at 3 μM amounted to 5.39 µL/min/mg. The “idazoxan reaching systemic circulation” value in data set [3] was 27-28%.
